Data: patent US6369299B1 (Regents of the University of Minnesota, priority 1999, dated 2002)

Experiments:
[1] = test system: quinone-binding (QB) protein; details: altered QB protein of atrazine resistant weeds; cited from earlier work
[2] = test system: Medicago sativa cv. Regen SY; test: atrazine tolerance: rooting and growth of sterile cuttings on sugar-free, hormone-free B5h medium; type: in vivo; details: untransformed control (SY) plant cuttings, Magenta boxes
From the text: Under these conditions plant growth depends on photosynthesis for production of energy and carbon.

plants = details: cited from earlier work

Compound | reduced affinity of altered QB protein for atrazine [1] | atrazine concentration at which cuttings did not root or grow [2] | herbicidal activity (plants)
CCNc1nc(Cl)nc(NC(C)C)n1 [atrazine, 2-chloro-4-ethylamino-6-isopropylamino-1,3,5-s-triazine] | 1000 fold | ≥ 500 nM | 
CCNc1nc(NC(C)C)[nH]c(=O)n1 [hydroxyatrazine] |  |  | no herbicidal activity
